Test results: ChEMBL document CHEMBL1128746, “Aminoalkylindoles: structure-activity relationships of novel cannabinoid mimetics” (J Med Chem, 1995)

Legend:
Mus musculus = species: Mus musculus; assay: Concentration required to inhibit electrically induced contractions in isolated mouse vas deferens preparation in vitro; type: functional
[1] = molecular target: Cannabinoid receptor 1 (Rattus norvegicus) (UniProt P20272); assay: (§1) […] [3H]WIN-55212 binding to Cannabinoid receptor 1 in rat cerebellum membranes.; type: cell membranes; settings: Membrane, concentration not given here
Chain of Cannabinoid receptor 1 (Rattus norvegicus) (P20272 whole entry): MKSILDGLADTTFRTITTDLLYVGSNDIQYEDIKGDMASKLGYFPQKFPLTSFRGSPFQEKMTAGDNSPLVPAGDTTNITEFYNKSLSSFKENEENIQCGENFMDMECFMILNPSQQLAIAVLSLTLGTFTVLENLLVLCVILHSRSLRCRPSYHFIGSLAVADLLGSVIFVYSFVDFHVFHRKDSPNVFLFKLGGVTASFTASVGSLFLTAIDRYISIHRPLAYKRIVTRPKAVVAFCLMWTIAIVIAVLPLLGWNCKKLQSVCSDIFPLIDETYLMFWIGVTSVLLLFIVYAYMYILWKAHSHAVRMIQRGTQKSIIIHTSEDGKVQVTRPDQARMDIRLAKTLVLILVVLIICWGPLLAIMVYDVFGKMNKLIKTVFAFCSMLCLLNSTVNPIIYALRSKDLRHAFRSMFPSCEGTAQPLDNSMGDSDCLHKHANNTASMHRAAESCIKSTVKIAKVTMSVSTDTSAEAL

Cannabinoid receptor 1 = Cannabinoid receptor 1 (Rattus norvegicus, UniProt P20272); assay: as §1; type: cell membranes, Membrane
Chain of Cannabinoid receptor 1 (P20272 whole entry): as above

Row | Compound | IC50 (Mus musculus; Mus musculus) [µM] | inhibition [1] [%] | IC50 (Cannabinoid receptor 1) [µM] | IC50 (Mus musculus) [µM]
1 | Cc1c(C(=O)c2c3ccccc3cc3ccccc23)c2ccccc2n1CCN1CCOCC1 | > 10 |  |  | 
2 | COc1ccc(C(=O)c2c(C)n(CCN3CCS(=O)(=O)CC3)c3ccccc23)cc1 |  | -4 |  | 
3 | COc1ccc(C(=O)c2cn(CCN3CCOCC3)c3ccccc23)c2ccccc12 |  |  | 0.0014 | 
4 | Cc1c(C(=O)c2cccc3ccccc23)c2ccccc2n1CCCN1CCOCC1 | 0.112 |  | 0.15 | 
5 | Cc1ccc2c(C(=O)c3cccc4ccccc34)cn(CCN3CCOCC3)c2c1 | 0.0017 |  | 0.0035 | 
6 | COc1ccc(C(=O)c2c(C)n(CC(=O)O)c3ccccc23)cc1 | > 10 |  |  | 
7 | O=C(c1ccc2ncccc2c1)c1cn(CCN2CCOCC2)c2ccccc12 | 0.142 |  | 0.491 | 
8 | Cc1c(C(=O)c2ccnc3ccccc23)c2ccccc2n1CCN1CCOCC1 | 0.115 |  | 0.283 | 
9 | Cc1c(C(=O)c2cccc(F)c2)c2ccccc2n1CCN1CCOCC1 |  | 38 |  | 
10 | CCc1ccc(C(=O)c2c(C)n(CCN3CCOCC3)c3ccccc23)cc1 | 0.071 |  | 0.306 | 
11 | COc1ccc(C(=O)c2c(C)n(CCN3CCNCC3)c3ccccc23)cc1 | > 10 |  |  | 
12 | COc1ccc(C(=O)c2c(C)n(CCN3CCOCC3)c3ccccc23)cc1 [PRAVADOLINE] | 0.319 |  | 3.15 | 
13 | COc1ccc(C(=O)c2c(C)n(CCN3CCSCC3)c3ccccc23)cc1 |  |  | 0.622 | 
14 | COc1ccc(C(=O)c2c(C)n(CCN3CCOC(C)C3)c3ccccc23)cc1 (stereo unspecified) | > 10 |  |  | 
15 | Cc1c(C(=O)c2cccc3ccccc23)c2ccccc2n1CCN1CCOC(C)C1 (stereo unspecified) | 0.03 |  | 0.059 | 
16 | Cc1c(C(=O)c2ccc(C#N)c3ccccc23)c2ccccc2n1CCN1CCOCC1 | 0.015 |  | 0.015 | 
17 | COc1ccc(C(=O)c2c(C)n(CCN3CCOCC3)c3c(F)cccc23)cc1 | 0.073 |  | 0.571 | 
18 | Cc1ccc(C(=O)c2c(C)n(CCN3CCOCC3)c3ccccc23)cc1C |  |  | 0.14 | 
19 | O=C(c1cccc2ccccc12)c1cn(CCN2CCOCC2)c2ccc(Br)cc12 | 0.019 |  | 0.186 | 
20 | O=C(c1ccc2occc2c1)c1cn(CCN2CCOCC2)c2ccccc12 | 0.028 |  | 0.138 | 
21 | O=C(c1cccc2ccccc12)c1c(Cl)n(CCN2CCOCC2)c2ccccc12 | 0.0061 |  | 0.01 | 
22 | COc1ccc(C(=O)c2c(C)n(CCN3CCOCC3)c3cc(Br)ccc23)cc1 | > 10 |  | 0.515 | 
23 | Cc1c(C(=O)c2cccc3ccoc23)c2ccccc2n1CCN1CCOCC1 | 0.017 |  | 0.071 | 

Row | Compound | IC50 (Mus musculus; Mus musculus) [µM] | inhibition [1] [%] | IC50 (Cannabinoid receptor 1) [µM] | IC50 (Mus musculus) [µM]
24 | COc1cccc2c(C(=O)c3cccc4ccccc34)c(C)n(CCN3CCOCC3)c12 |  |  | 0.01 | 
25 | CC(CN1CCOCC1)n1cc(C(=O)c2cccc3ccccc23)c2ccccc21 (racemic; form 2) [listing 1 of 2 here] |  |  |  | 0.019
26 | Cc1c(C(=O)c2cccc3ccccc23)c2ccccc2n1CCN1CCNCC1 |  | -9 |  | 
27 | Cc1c(C(=O)c2cccc(Cl)c2)c2ccccc2n1CCN1CCOCC1 |  |  | 1.32 | 
28 | Cc1c(C(=O)c2ccc3cccnc3c2)c2ccccc2n1CCN1CCOCC1 | 0.088 |  |  | 
29 | O=C(c1cn(CCN2CCOCC2)c2ccccc12)C1CCCc2ccccc21 (stereo unspecified) | 0.011 |  | 0.038 | 
30 | COc1ccc(C(=O)c2c(O)n(CCN3CCOCC3)c3ccccc23)cc1 |  | 1 |  | 
31 | Cc1c(C(=O)c2ccc3ccccc3n2)c2ccccc2n1CCN1CCOCC1 | 0.099 |  | 0.331 | 
32 | Cc1ccc(C(=O)c2c(C)n(CCN3CCOCC3)c3ccccc23)c2ccccc12 | 0.0096 |  | 0.0059 | 
33 | Cc1c(C(=O)c2cc3ccccc3o2)c2ccccc2n1CCN1CCOCC1 | 0.324 |  | 0.416 | 
34 | COc1ccc(C(=O)c2c(C)n(CCN3CCOCC3)c3ccccc23)c2ccccc12 | 0.023 |  | 0.055 | 
35 | COc1ccc(C(=O)c2c(C)n(CCN3CCOCC3)c3cc(C)ccc23)cc1 | > 10 |  | 1.88 | 
36 | O=C(c1cccc2ccccc12)c1cn(CCCN2CCOCC2)c2ccccc12 | 0.0098 |  | 0.043 | 
37 | CCc1c(C(=O)c2ccc(OC)cc2)c2ccccc2n1CCN1CCOCC1 | > 10 |  |  | 
38 | Cc1c(C(=O)c2ccccc2C#N)c2ccccc2n1CCN1CCOCC1 |  | 0 |  | 
39 | COc1ccc(C(=O)c2c(F)n(CCN3CCOCC3)c3ccccc23)cc1 |  | 7 |  | 
40 | Cc1c(C(=O)c2ccc3ccccc3c2)c2ccccc2n1CCN1CCOCC1 | 0.05 |  | 0.128 | 
41 | CC(CN1CCOCC1)n1cc(C(=O)c2cccc3ccccc23)c2ccccc21 (racemic; form 2) [listing 2 of 2 here] |  | 94 |  | 
42 | COc1ccc(C(=O)c2c(C)n(CC(C)N3CCOCC3)c3ccccc23)cc1 (stereo unspecified) | > 10 |  |  | 
43 | Cc1c(C(=O)c2ccc(Br)c3ccccc23)c2ccccc2n1CCN1CCOCC1 | 0.034 |  | 0.0069 | 
44 | COc1ccc(C(=O)c2c(C)n(CCCCN3CCOCC3)c3ccccc23)cc1 | > 10 |  |  | 
45 | Cc1cccc(C(=O)c2c(C)n(CCN3CCOCC3)c3ccccc23)c1 |  |  | 0.606 | 
46 | O=C(c1c2ccccc2cc2ccccc12)c1cn(CCN2CCOCC2)c2ccccc12 | > 10 |  | 2.96 | 

Row | Compound | IC50 (Mus musculus; Mus musculus) [µM] | inhibition [1] [%] | IC50 (Cannabinoid receptor 1) [µM] | IC50 (Mus musculus) [µM]
47 | Cc1ccc2c(C(=O)c3cccc4ccccc34)c(C)n(CCN3CCOCC3)c2c1 | 0.015 |  | 0.011 | 
48 | CCN(CC)CCn1c(C)c(C(=O)c2ccc(OC)cc2)c2ccccc21 | > 10 |  |  | 
49 | O=C(c1cn(CCN2CCOCC2)c2ccccc12)c1cccc2ccoc12 | 0.0046 |  | 0.018 | 
50 | CC(CN1CCOCC1)n1cc(C(=O)c2cccc3ccccc23)c2ccccc21 (racemic; form 1) |  |  | 0.114 | 0.06
51 | O=C(c1cccc2ccccc12)c1cn(CCN2CCOCC2)c2ccc(O)cc12 | 0.02 |  | 0.07 | 
52 | O=C(c1cccc2ccccc12)c1cn(CCN2CCOCC2)c2ccccc12 | 0.0063 |  | 0.0078 | 
53 | Cc1c(C(=O)c2ccccc2O)c2ccccc2n1CCN1CCOCC1 |  | -2 |  | 
54 | Cc1c(C(=O)c2cccc3ncccc23)c2ccccc2n1CCN1CCOCC1 | 0.079 |  | 0.828 | 
55 | Cc1c(C(=O)c2cccc3ccccc23)c2ccccc2n1C(C)CN1CCOCC1 (racemic; form 2) |  |  | 0.013 | 0.011
56 | O=C(c1ccc2ccoc2c1)c1cn(CCN2CCOCC2)c2ccccc12 | 0.04 |  | 0.304 | 
57 | CCCc1ccc(C(=O)c2c(C)n(CCN3CCOCC3)c3ccccc23)cc1 |  |  | 1.13 | 
58 | Cc1c(C(=O)c2ccc(F)cc2)c2ccccc2n1CCN1CCOCC1 |  | 12 |  | 
59 | Cc1c(C(=O)c2cccc3ccccc23)c2ccccc2n1C(C)CN1CCOCC1 (racemic; form 1) [listing 1 of 2 here] |  |  |  | 0.056
60 | COc1ccc(C(=O)c2c(C)n(CC[N+]3(C)CCOCC3)c3ccccc23)cc1 | 4.31 |  |  | 
61 | Cc1c(C(=O)c2cccc3ccccc23)c2ccccc2n1C(C)CN1CCOCC1 (racemic; form 1) [listing 2 of 2 here] |  | 79 |  | 
62 | CC(Cn1cc(C(=O)c2cccc3ccccc23)c2ccccc21)N1CCOCC1 (stereo unspecified) | 0.06 |  | 0.124 | 
63 | COc1ccc(C(=O)c2c(C)n(CCN(C)C)c3ccccc23)cc1 |  | 11 |  | 
64 | Cc1c(C(=O)c2cccc3ccccc23)c2ccc(Br)cc2n1CCN1CCOCC1 |  |  | 0.01 | 
65 | Cc1c(C(=O)c2cccc(C#N)c2)c2ccccc2n1CCN1CCOCC1 |  | 1 |  | 
66 | Cc1c(C(=O)c2cccc3ccccc23)c2ccccc2n1CCN1CCOCC1C (stereo unspecified) | 0.207 |  | 0.384 | 
67 | CC(CN1CCOCC1)n1cc(C(=O)c2cccc3ccccc23)c2ccccc21 (stereo in doubt; -106) |  |  | 0.033 | 0.012
68 | Cc1ccc(C(=O)c2c(C)n(CCN3CCOCC3)c3ccccc23)cc1 | 0.442 |  | 1.77 | 
69 | CCCCCc1cc(O)c2c(c1)OC(C)(C)[C@@H]1CCC(C)=C[C@@H]21 [DRONABINOL] | 0.004 |  |  | 

Row | Compound | IC50 (Mus musculus; Mus musculus) [µM] | inhibition [1] [%] | IC50 (Cannabinoid receptor 1) [µM] | IC50 (Mus musculus) [µM]
70 | Cc1ccc(C(=O)c2cn(CCN3CCOCC3)c3ccccc23)c2ccccc12 | 0.0036 |  | 0.0028 | 
71 | Cc1c(C(=O)c2ccc(C(C)(C)C)cc2)c2ccccc2n1CCN1CCOCC1 |  | 56 |  | 
72 | Cc1c(C(=O)c2cccc3cccnc23)c2ccccc2n1CCN1CCOCC1 | 0.129 |  | 0.274 | 
73 | COc1ccc(C(=O)c2cn(CCN3CCOCC3)c3ccccc23)cc1 | 0.101 |  | 0.39 | 
74 | O=C(c1ccc(O)c2ccccc12)c1cn(CCN2CCOCC2)c2ccccc12 |  |  | 0.0034 | 
75 | COc1ccccc1C(=O)c1c(C)n(CCN2CCOCC2)c2ccccc12 | 0.091 |  | 0.8 | 
76 | Cc1c(C(=O)c2ccc3occc3c2)c2ccccc2n1CCN1CCOCC1 | 0.126 |  | 0.357 | 
77 | COc1ccc(C(=O)c2c(C)n(CCN3CCOCC3)c3cc(OC)ccc23)cc1 | > 10 |  | 1.45 | 
78 | Cc1c(C(=O)c2coc3ccccc23)c2ccccc2n1CCN1CCOCC1 | 0.052 |  | 0.11 | 
79 | COc1ccc(C(=O)c2c(C#N)n(CCN3CCOCC3)c3ccccc23)cc1 |  | 3 |  | 
80 | COc1ccc(C(=O)c2c(C)n(CCN)c3ccccc23)cc1 | > 10 |  |  | 
81 | O=C(c1cccc2ccccc12)c1cn(CCN2CCOCC2)c2ccc(F)cc12 | 0.0073 |  | 0.035 | 
82 | COc1ccc(C(=O)c2c(C)n(CCN3CCOCC3C)c3ccccc23)cc1 (stereo unspecified) | > 10 |  |  | 
83 | O=C(c1cccc2occc12)c1cn(CCN2CCOCC2)c2ccccc12 | 0.0077 |  | 0.024 | 
84 | Cc1c(C(=O)c2cccc3ccccc23)c2ccccc2n1CCN1CCN(C)CC1 | > 10 |  |  | 
85 | O=C(c1ccc2ccccc2c1)c1cn(CCN2CCOCC2)c2ccccc12 | 0.031 |  | 0.059 | 
86 | Cc1c(C(=O)c2cccc3ccccc23)c2ccccc2n1CCN1CCOCC1 | 0.015 |  | 0.019 | 
87 | Cc1cccc(C(=O)c2c(C)n(CCN3CCOCC3)c3ccccc23)c1C |  |  | 0.373 | 
88 | Cc1c(C(=O)c2ccc3ncccc3c2)c2ccccc2n1CCN1CCOCC1 | 0.103 |  | 0.499 | 
89 | COc1ccc(C(=O)c2c(C)[nH]c3ccccc23)cc1 | 0.027 |  |  | 
90 | COc1ccc(C(=O)c2c(C)n(CCN3CCOCC3)c3c(C)cccc23)cc1 | 0.178 |  | 1.53 | 
91 | Cc1c(C(=O)c2cccc3ccccc23)c2ccccc2n1CCN1CCCCC1 | 0.066 |  | 0.037 | 
